Experimental data reported in US20240158446A1, “CYCLIC COMPOUND HAVING SELECTIVE INHIBITORY ACTION ON KRAS OVER HRAS AND NRAS” (CHUGAI SEIYAKU KABUSHIKI KAISHA, priority 2021, published 2024).

How the values were obtained:
[1] = biological target: GDP-bound HRAS wild-type protein (Homo sapiens, UniProt P01112); experiment: Binding to HRAS by surface plasmon resonance (SPR), Single Cycle Kinetics; details: SPR, GDP-bound HRAS wild-type protein vs GDP-bound KRAS wild-type protein
[2] = biological target: GDP-bound NRAS wild-type protein (Homo sapiens, UniProt P01111); experiment: Binding to NRAS by surface plasmon resonance (SPR), Single Cycle Kinetics; details: SPR, GDP-bound NRAS wild-type protein vs GDP-bound KRAS wild-type protein
GDP-bound NRAS wild-type protein, sequence (P01111 whole entry): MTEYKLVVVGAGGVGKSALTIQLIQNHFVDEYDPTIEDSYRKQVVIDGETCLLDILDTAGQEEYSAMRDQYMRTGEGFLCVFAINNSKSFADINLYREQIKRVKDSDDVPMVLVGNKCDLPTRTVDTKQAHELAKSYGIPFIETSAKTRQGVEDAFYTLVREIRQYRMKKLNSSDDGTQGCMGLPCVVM

GDP-bound HRAS wild-type protein, sequence (P01112 whole entry): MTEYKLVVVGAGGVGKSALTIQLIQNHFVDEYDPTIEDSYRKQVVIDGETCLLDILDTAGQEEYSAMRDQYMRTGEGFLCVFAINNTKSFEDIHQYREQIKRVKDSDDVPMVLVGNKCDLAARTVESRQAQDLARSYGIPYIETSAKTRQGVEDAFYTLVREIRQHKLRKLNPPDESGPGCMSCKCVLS

## CCO[C@@H]1C[C@H]2C(=O)NC3(CCC3)C(=O)N(C)[C@@H](C3CCCC3)C(=O)N(C)[C@H](C)CC(=O)N(C)[C@@H](CC(C)C)C(=O)N[C@@H]([C@@H](C)CC)C(=O)N(C)CC(=O)N(C)[C@H]3C/C=C\CCN(C3=O)[C@@H](Cc3ccc(C(F)(F)F)cc3)C(=O)N(C)CC(=O)N[C@@H](CCc3cc(F)c(C(F)(F)F)c(F)c3)C(=O)N2C1 [PP1100]
[1]
  HRAS/KRAS (ratio of KD value for HRAS to KD value for KRAS): B (a compound having 3 or more and less than 10 is denoted as B)
[2]
  NRAS/KRAS (ratio of KD value for NRAS to KD value for KRAS): B (a compound having 3 or more and less than 10 is denoted as B)

## CCO[C@@H]1C[C@H]2C(=O)NC3(CCCC3)C(=O)N(C)[C@@H](C3CCCC3)C(=O)N(C)[C@H](C(=O)N(C)C)CC(=O)N(C)[C@@H](CC(C)C)C(=O)N[C@@H]([C@@H](C)CC)C(=O)N(C)CC(=O)N(C)[C@H]3C/C=C\CCN(C3=O)[C@@H](Cc3ccc(C(F)(F)F)cc3)C(=O)N(C)CC(=O)N[C@@H](CCc3cc(F)c(C(F)(F)F)c(F)c3)C(=O)N2C1 [PP1105, (2S,8S,12R,14S,20S,23S,27S,30S,36S,38Z)-20-cyclopentyl-8-[2-[3,5-difluoro-4-(trifluoromethyl)phenyl]ethyl]-12-ethoxy-27-isobutyl-N,N,4,19,22,26,32,35-octamethyl-30-[(1S)-1-methylpropyl]-3,6,9,15,18,21,25,28,31,34,42-undecaoxo-2-[[4-(trifluoromethyl)phenyl]methyl]spiro[1,4,7,10,16,19,22,26,29,32,35-undecazatricyclo[34.5.1.0^10,14]dotetracont-38-ene-17,1′-cyclopentane]-23-carboxamide]
[1]
  HRAS/KRAS (ratio of KD value for HRAS to KD value for KRAS): A (a compound having 10 or more and less than 20 is denoted as A)
[2]
  NRAS/KRAS (ratio of KD value for NRAS to KD value for KRAS): A (a compound having 10 or more and less than 20 is denoted as A)

## CC[C@H](C)[C@@H]1NC(=O)[C@H](CC(C)C)N(C)C(=O)C[C@@H](C(=O)N2C[C@@H](C)O[C@@H](C)C2)N(C)C(=O)[C@H](C2CCCC2)N(C)C(=O)C2(CCCC2)NC(=O)[C@@H]2CCCN2C(=O)[C@H](CCc2ccc(C(F)(F)F)c(Cl)c2)NC(=O)CN(C)C(=O)[C@H](Cc2ccc(F)cc2)N2CCCCC[C@@H](C2=O)N(C)C(=O)CN(C)C1=O [PP1151]
[1]
  HRAS/KRAS (ratio of KD value for HRAS to KD value for KRAS): B (a compound having 3 or more and less than 10 is denoted as B)
[2]
  NRAS/KRAS (ratio of KD value for NRAS to KD value for KRAS): B (a compound having 3 or more and less than 10 is denoted as B)

## CCO[C@@H]1C[C@H]2C(=O)NC3(CCC3)C(=O)N(C)[C@@H](C3CCCC3)C(=O)N(C)[C@H](C(=O)N(CC)CC)CC(=O)N(C)[C@@H](CC(F)F)C(=O)N[C@@H]([C@@H](C)CC)C(=O)N(C)CC(=O)N(C)[C@H]3C/C=C\CCN(C3=O)[C@@H](Cc3ccc(C(F)(F)F)cc3)C(=O)N(C)CC(=O)N[C@@H](CCc3cc(F)c(C(F)(F)F)c(F)c3)C(=O)N2C1 [PP1309]
[1]; KD ratio class
  HRAS/KRAS (ratio of KD value for HRAS to KD value for KRAS): A (a compound having 10 or more and less than 20 is denoted as A)
[2]; KD ratio class
  NRAS/KRAS (ratio of KD value for NRAS to KD value for KRAS): A (a compound having 10 or more and less than 20 is denoted as A)

## CCO[C@@H]1C[C@H]2C(=O)NC3(CCC3)C(=O)N(C)[C@@H](C3CCCC3)C(=O)N(C)[C@H](C)CC(=O)N(C)[C@@H](CC3CC3)C(=O)N[C@@H]([C@@H](C)CC)C(=O)N(C)CC(=O)N(C)[C@H]3C/C=C\CCN(C3=O)[C@@H](Cc3ccc(F)cc3C)C(=O)N(C)CC(=O)N[C@@H](CCc3cc(F)c(C(F)(F)F)c(F)c3)C(=O)N2C1 [PP1489]
[1]; KD ratio class
  HRAS/KRAS (ratio of KD value for HRAS to KD value for KRAS): B (a compound having 3 or more and less than 10 is denoted as B)
[2]; KD ratio class
  NRAS/KRAS (ratio of KD value for NRAS to KD value for KRAS): B (a compound having 3 or more and less than 10 is denoted as B)

## CCO[C@@H]1C[C@H]2C(=O)NC3(CCC3)C(=O)N(C)[C@@H](C3CCCC3)C(=O)N(C)[C@H](C)CC(=O)N(C)[C@@H](CC3CCCC3)C(=O)N[C@@H]([C@@H](C)CC)C(=O)N(C)CC(=O)N(C)[C@H]3C/C=C\CCN(C3=O)[C@@H](Cc3ccc(F)cc3)C(=O)N(C)CC(=O)N[C@@H](CCc3cc(F)c(C(F)(F)F)c(F)c3)C(=O)N2C1 [PP1492]
[1]; KD ratio class
  HRAS/KRAS (ratio of KD value for HRAS to KD value for KRAS): B (a compound having 3 or more and less than 10 is denoted as B)
[2]; KD ratio class
  NRAS/KRAS (ratio of KD value for NRAS to KD value for KRAS): B (a compound having 3 or more and less than 10 is denoted as B)

## CCO[C@@H]1C[C@H]2C(=O)NC3(CCC3)C(=O)N(C)[C@@H](C3CCCC3)C(=O)N(C)[C@H](C)CC(=O)N(C)[C@@H](CC(C)C)C(=O)N[C@@H]([C@@H](C)CC)C(=O)N(C)CC(=O)N(C)[C@H]3C/C=C\CCN(C3=O)[C@@H](Cc3ccc(F)cc3C)C(=O)N(C)CC(=O)N[C@@H](CCc3cc(F)c(C(F)(F)F)c(F)c3)C(=O)N2C1 [PP1493]
[1]; KD ratio class
  HRAS/KRAS (ratio of KD value for HRAS to KD value for KRAS): B (a compound having 3 or more and less than 10 is denoted as B)
[2]; KD ratio class
  NRAS/KRAS (ratio of KD value for NRAS to KD value for KRAS): B (a compound having 3 or more and less than 10 is denoted as B)

## CCO[C@@H]1C[C@H]2C(=O)NC3(CCC3)C(=O)N(C)[C@@H](C3CCCC3)C(=O)N(C)[C@H](C)CC(=O)N(C)[C@@H](CC(C)C)C(=O)N[C@@H]([C@@H](C)CC)C(=O)N(C)CC(=O)N(C)[C@H]3C/C=C\CCN(C3=O)[C@@H](Cc3ccc(F)cc3)C(=O)N(C)CC(=O)N[C@@H](CCc3cc(F)c(C(F)(F)F)c(F)c3)C(=O)N2C1 [PP1494]
[1]; KD ratio class
  HRAS/KRAS (ratio of KD value for HRAS to KD value for KRAS): B (a compound having 3 or more and less than 10 is denoted as B)
[2]; KD ratio class
  NRAS/KRAS (ratio of KD value for NRAS to KD value for KRAS): B (a compound having 3 or more and less than 10 is denoted as B)

## CCO[C@@H]1C[C@H]2C(=O)NC3(CCC3)C(=O)N(C)[C@@H](C3CCCC3)C(=O)N(C)[C@H](C(=O)N3CCOCC3)CC(=O)N(C)[C@@H](CC3CC3)C(=O)N[C@@H]([C@@H](C)CC)C(=O)N(C)CC(=O)N(C)[C@H]3C/C=C\CCN(C3=O)[C@@H](Cc3ccc(F)cc3C)C(=O)N(C)CC(=O)N[C@@H](CCc3cc(F)c(C(F)(F)F)c(F)c3)C(=O)N2C1 [PP1495]
[1]; KD ratio class
  HRAS/KRAS (ratio of KD value for HRAS to KD value for KRAS): B (a compound having 3 or more and less than 10 is denoted as B)
[2]; KD ratio class
  NRAS/KRAS (ratio of KD value for NRAS to KD value for KRAS): A (a compound having 10 or more and less than 20 is denoted as A)

## CC[C@H](C)[C@@H]1NC(=O)[C@H](CC2CCCC2)N(C)C(=O)C[C@@H](C(=O)N(C)C)N(C)C(=O)[C@H](C2CCCC2)N(C)C(=O)C2(CCC2)NC(=O)[C@@H]2C[C@@H](C(F)(F)F)CN2C(=O)[C@H](CCc2cc(F)c(C(F)(F)F)c(F)c2)NC(=O)CN(C)C(=O)[C@H](Cc2ccc(F)cc2)N2CC/C=C\C[C@@H](C2=O)N(C)C(=O)CN(C)C1=O [PP1508]
[1]; KD ratio class
  HRAS/KRAS (ratio of KD value for HRAS to KD value for KRAS): A (a compound having 10 or more and less than 20 is denoted as A)
[2]; KD ratio class
  NRAS/KRAS (ratio of KD value for NRAS to KD value for KRAS): A (a compound having 10 or more and less than 20 is denoted as A)

## CC[C@H](C)[C@@H]1NC(=O)[C@H](CC2CC2)N(C)C(=O)C[C@@H](C(=O)N2CCCC2)N(C)C(=O)[C@H](C2CCCC2)N(C)C(=O)C2(CCCC2)NC(=O)[C@@H]2C[C@@H](C(F)(F)F)CN2C(=O)[C@H](CCc2cc(F)c(C(F)(F)F)c(F)c2)NC(=O)CN(C)C(=O)[C@H](Cc2ccc(F)cc2)N2CC/C=C\C[C@@H](C2=O)N(C)C(=O)CN(C)C1=O [PP1509]
[1]; KD ratio class
  HRAS/KRAS (ratio of KD value for HRAS to KD value for KRAS): A (a compound having 10 or more and less than 20 is denoted as A)
[2]; KD ratio class
  NRAS/KRAS (ratio of KD value for NRAS to KD value for KRAS): A (a compound having 10 or more and less than 20 is denoted as A)

## CCO[C@@H]1C[C@H]2C(=O)NC3(CCC3)C(=O)N(C)[C@@H](C(CC)CC)C(=O)N(C)[C@H](C(=O)N(C)C)CC(=O)N(C)[C@@H](CC3CC3)C(=O)N[C@@H]([C@@H](C)CC)C(=O)N(C)CC(=O)N(C)[C@H]3C/C=C\CCN(C3=O)[C@@H](Cc3ccc(F)cc3C)C(=O)N(C)CC(=O)N[C@@H](CCc3cc(F)c(C(F)(F)F)c(F)c3)C(=O)N2C1 [PP1514]
[1]; KD ratio class
  HRAS/KRAS (ratio of KD value for HRAS to KD value for KRAS): A (a compound having 10 or more and less than 20 is denoted as A)
[2]; KD ratio class
  NRAS/KRAS (ratio of KD value for NRAS to KD value for KRAS): A (a compound having 10 or more and less than 20 is denoted as A)

## CCO[C@@H]1C[C@H]2C(=O)NC3(CCC3)C(=O)N(C)[C@@H](C(CC)CC)C(=O)N(C)[C@H](C)CC(=O)N(C)[C@@H](CC3CC3)C(=O)N[C@@H]([C@@H](C)CC)C(=O)N(C)CC(=O)N(C)[C@H]3C/C=C\CCN(C3=O)[C@@H](Cc3ccc(F)cc3C)C(=O)N(C)CC(=O)N[C@@H](CCc3cc(F)c(C(F)(F)F)c(F)c3)C(=O)N2C1 [PP1520]
[1]; KD ratio class
  HRAS/KRAS (ratio of KD value for HRAS to KD value for KRAS): A (a compound having 10 or more and less than 20 is denoted as A)
[2]; KD ratio class
  NRAS/KRAS (ratio of KD value for NRAS to KD value for KRAS): A (a compound having 10 or more and less than 20 is denoted as A)

## CCO[C@@H]1C[C@H]2C(=O)NC3(CCC3)C(=O)N(C)[C@@H](C(CC)CC)C(=O)N(C)[C@H](C)CC(=O)N(C)[C@@H](CC(C)C)C(=O)N[C@@H]([C@@H](C)CC)C(=O)N(C)CC(=O)N(C)[C@H]3C/C=C\CCN(C3=O)[C@@H](Cc3ccc(F)cc3C)C(=O)N(C)CC(=O)N[C@@H](CCc3cc(F)c(C(F)(F)F)c(F)c3)C(=O)N2C1 [PP1524]
[1]; KD ratio class
  HRAS/KRAS (ratio of KD value for HRAS to KD value for KRAS): B (a compound having 3 or more and less than 10 is denoted as B)
[2]; KD ratio class
  NRAS/KRAS (ratio of KD value for NRAS to KD value for KRAS): B (a compound having 3 or more and less than 10 is denoted as B)

## CCO[C@@H]1C[C@H]2C(=O)NC3(CCC3)C(=O)N(C)[C@@H](C(CC)CC)C(=O)N(C)[C@H](C)CC(=O)N(C)[C@@H](CC(C)C)C(=O)N[C@@H]([C@@H](C)CC)C(=O)N(C)CC(=O)N(C)[C@H]3C/C=C\CCN(C3=O)[C@@H](Cc3ccc(F)cc3)C(=O)N(C)CC(=O)N[C@@H](CCc3cc(F)c(C(F)(F)F)c(F)c3)C(=O)N2C1 [PP1525]
[1]; KD ratio class
  HRAS/KRAS (ratio of KD value for HRAS to KD value for KRAS): A (a compound having 10 or more and less than 20 is denoted as A)
[2]; KD ratio class
  NRAS/KRAS (ratio of KD value for NRAS to KD value for KRAS): A (a compound having 10 or more and less than 20 is denoted as A)
